# Values of other authors in patent US20040014652A1, “Tumor activated prodrug compounds and methods of making and using the same” (priority 2000, published 2004).
# Experiments:
# tumors = conditions: mice
# [1] = human, in vivo
substance,measurement,setting,value
TNFα,dose required for tumor regression,tumors,approximately 400 μg/kg
same,half-life,[1],20 min
